Test results published in patent US4073917A, “Local anesthetics tertiary aminoalkoxyphenyl ethers” (priority 1974, dated 1978).

How the values were obtained:
[1] = system: sciatic nerve; test: infiltration anesthesia, sciatic nerve block in the intact guinea-pig (Shackell); format: in vivo
Experimental: B. The compounds according to the invention were also tested as to onset and duration of local anesthetic effect at parenteral administration (infiltration anesthesia). […] Four animals were used at each test. The results are depicted in the following table:
The reference compound being used at this test is 2-(N-ethyl-n-propylamino)-2',6'-n-butyroxylidide (etidocaine).

[2] = system: mice; conditions: s.c.; taken from Adams et al; cited from earlier work
[3] = system: back of the guinea-pig (intact skin); test: surface anesthesia by epicutaneous application to intact skin, pricking test as in the intracutaneous wheal test; format: in vivo, guinea-pig (Dunkin-Hartley, males); conditions: for Local anesthetic efficiency (percentage block during the 25 min testing period): ± s.e.m.
Description: A. Guinea-pigs (Dunkin-Hartley, males, 4-6 weeks of age 350±50 g) were shaved and depilated. A gauze folded twice (23 mm diameter) was put into the test solution and thereafter in a plastic cup (outer diameter 26 mm, inner diameter 24 mm, inner height 4 mm). The cup with the gauze saturated with test solution was attached to the back of the animal as an occlusive dressing fastened with plaster (25 mm width) wound around the body). […] After the end of the contact time the site of contact was washed and marked with a fatty chalk. With a sharp instrument (e.g. cannula or a pair of tweezers) the place was pricked six times and registering was made as in the intracutaneous wheal test (Bulbring-Wajda: J. Pharmacol., 1945, 85, p 78) on the back of the guinea-pig, i.e. by registering the presence or absence of a characteristic ripple of the skin of the back of the animal. Every pricking which gives no skin contraction was counted. The test was repeated at regular intervals of 5 min, during an interval of 30 min from the end of the application period. The test gives an indication of onset time, depth and duration of block. The percentage block during the 25 min testing period was used as an index for efficiency. The test solution consisted of the test compound (base) dissolved to 10% (w/v, g/ml) in a mixture of isopropanol (65%: v/v), glycerol (25%: v/v) and water (10%: v/v).
The compound according to Example 1 (RAP 411) was tested also with varying concentrations and in the form of a hydrochloride salt in aqueous solution.

[4] = acute toxicity in mice (LD 50); conditions: mouse, in vivo
Experimental: C. The acute toxicity for the base forms of a number of the new compounds were tested in mice.

[5] = 5% base in the alcoholic mixture
[6] = 10% (w/v) base in isopropanol 65%/glycerol 25%/water 10%, time of contact 30 min
[7] = 10% hydrochloride in aqueous solution

CCCN(CC)C(CC)C(=O)Nc1c(C)cccc1C (centres unmarked) [Etidocaine, 2-(N-ethyl-n-propylamino)-2',6'-n-butyroxylidide]
Flexion reflex block, duration ([1]; conc. 0.5%, pH 6.0): 84 ± 17 min | Flexion reflex block, onset ([1]; conc. 0.5%, pH 6.0): 1 to 2 min | Motor paralysis, duration ([1]; conc. 0.5%, pH 6.0): 131 ± 13 min | Motor paralysis, onset ([1]; conc. 0.5%, pH 6.0): 1 min | LD 50 (base) [2]: 99 mg/kg

CCCCOc1ccccc1OCCN(C(C)C)C(C)C [Example 1, 1-n-Butoxy-2-(2'-diisopropylaminoethoxy)-benzene]
anesthesia [3, 5]: complete anesthesia | duration of complete anesthesia [3, 5]: at least 30 min | Local anesthetic efficiency (percentage block during the 25 min testing period) [3, 6]: 99.3 ± 0.7% | Flexion reflex block, onset ([1]; conc. 0.5%, pH 6.0): 1 min | Motor paralysis, onset ([1]; conc. 0.5%, pH 6.0): 1 min | LD50 ([4]; iv): 15 mg/kg | LD50 ([4]; sc): 250 mg/kg

CCCOc1ccccc1OCCN(C(C)C)C(C)C [Example 2, 1-n-Propoxy-2-(2'-diisopropylaminoethoxy)-benzene]
Local anesthetic efficiency (percentage block during the 25 min testing period) [3, 6]: 98.6 ± 0.8%

CC(C)COc1ccccc1OCCN(C(C)C)C(C)C [Example 3, 1-Isobutoxy-2-(2'-diisopropylaminoethoxy)-benzene]
Local anesthetic efficiency (percentage block during the 25 min testing period) [3, 6]: 97.2 ± 2.8% | LD50 ([4]; iv): 14 mg/kg | LD50 ([4]; sc): 300 mg/kg

CCN(CC)CCOc1ccccc1OCC(C)C [Example 4, 1-Isobutoxy-2-(2'-diethylaminoethoxy)-benzene]
Local anesthetic efficiency (percentage block during the 25 min testing period) [3, 6]: 97.2 ± 2.8% | LD50 ([4]; iv): 18 mg/kg

CCN(CC)CCCOc1ccccc1OCC(C)C [Example 5, 1-Isobutoxy-2-(3'-diethylaminopropoxy)-benzene]
Local anesthetic efficiency (percentage block during the 25 min testing period) [3, 6]: 75.7 ± 9.4% | LD50 ([4]; iv): 14 mg/kg

CCCCOc1ccccc1OCCN1CCCCC1 [Example 6, 1-n-Butoxy-2-(2'-piperidinoethoxy)-benzene]
Local anesthetic efficiency (percentage block during the 25 min testing period) ([3]; 10% (w/v) base in alcoholic mixture, time of contact 15 min): 79.2 ± 12.6% | LD50 ([4]; iv): 9 mg/kg

CCN(CC)CC(=O)Nc1c(C)cccc1C [Lidocaine, diethylaminoacet-2,6-xylidide]
Flexion reflex block, duration ([1]; conc. 2.0%, pH 6.9): 57 ± 7 min | Flexion reflex block, onset ([1]; conc. 2.0%, pH 6.9): 1 to 2 min | Motor paralysis, duration ([1]; conc. 2.0%, pH 6.9): 78 ± 5 min | Motor paralysis, onset ([1]; conc. 2.0%, pH 6.9): 1 min

CCCCOc1ccccc1OCCN(C(C)C)C(C)C.Cl [RAP 411 hydrochloride, 1-n-butoxy-2-(2'-diisopropylaminoethoxy)-benzene hydrochloride]
anesthesia [3, 7]: complete anesthesia | duration of complete anesthesia [3, 7]: at least 30 min

CCN(CC)CCOc1ccccc1OC [RAP 419, o-methoxy-(diethylaminoethoxy)-benzene, reference compound]
Local anesthetic efficiency (percentage block during the 25 min testing period) [3, 6]: 0%
